From publication PMC8086144, “A novel peptide antagonist of the human growth hormone receptor” (The Journal of Biological Chemistry, 2021)

Assays:
[1] = Wavelength-dependent CD spectropolarimetry (helical propensity); assay type: physicochemical; settings: 25 °C; for % α-helix - TFE / % α-helix + TFE: calculated from MRE at 222 nm (Equation 1); for % α-helix - TFE / [θ]222 - TFE (mean residue ellipticity at 222 nm): 20 μM peptide in PBS, no TFE; for [θ]222 - TFE (mean residue ellipticity at 222 nm) / [θ]222 + TFE (mean residue ellipticity at 222 nm): far-UV CD, background-subtracted average of four scans, in deg·cm2/dmol (unit assumed); for % α-helix + TFE / [θ]222 + TFE (mean residue ellipticity at 222 nm): 20 μM peptide in PBS with 30% (v/v) TFE
Method: The solution-phase structure of each peptide was evaluated by wavelength-dependent CD spectropolarimetry. For analysis, stock peptides were diluted to a final concentration of 20 μM in PBS supplemented with or without 30% (v/v) TFE. All peptide solutions were allowed to equilibrate for 10 min at 25 °C before analysis. Far-UV wavelength scans were performed on a Jasco J-715 CD spectropolarimeter from 255 nm to 195 nm at 25 °C. Final spectra were generated from a background subtracted (buffer only) average of four scans. Data were processed using J-700 Software v1.5 (Jasco) and KaleidaGraph v4.5. Percent helicity was calculated from the mean residue ellipticity at 222 nm using Equation 1:(1) %helical content=100×([θ]222/(−39,000(1−2.57/n))) where [θ]222 is the mean residue ellipticity at 222 nm and n is the total number of peptide bonds ([86]).

hGHR = molecular target: T1, hGHR (Homo sapiens, UniProt P10912); assay: hGH-mediated pSTAT5 in SK-MEL-28 cells, ELISA; assay type: cell-based; settings: ELISA (pSTAT5A Y694/pSTAT5B Y699), SK-MEL-28 cells co-treated with hGH and 200 nM peptide, Equation 2, triplicate; for % pSTAT5 inhibition: 20 min; for inhibition at 0.2 µM: SK-MEL-28, 20 min
T1 construct: previously reported to express high levels of endogenous hGHR; host or cells: SK-MEL-28, MALME-3M, IM9
T1 sequence (P10912 19-638): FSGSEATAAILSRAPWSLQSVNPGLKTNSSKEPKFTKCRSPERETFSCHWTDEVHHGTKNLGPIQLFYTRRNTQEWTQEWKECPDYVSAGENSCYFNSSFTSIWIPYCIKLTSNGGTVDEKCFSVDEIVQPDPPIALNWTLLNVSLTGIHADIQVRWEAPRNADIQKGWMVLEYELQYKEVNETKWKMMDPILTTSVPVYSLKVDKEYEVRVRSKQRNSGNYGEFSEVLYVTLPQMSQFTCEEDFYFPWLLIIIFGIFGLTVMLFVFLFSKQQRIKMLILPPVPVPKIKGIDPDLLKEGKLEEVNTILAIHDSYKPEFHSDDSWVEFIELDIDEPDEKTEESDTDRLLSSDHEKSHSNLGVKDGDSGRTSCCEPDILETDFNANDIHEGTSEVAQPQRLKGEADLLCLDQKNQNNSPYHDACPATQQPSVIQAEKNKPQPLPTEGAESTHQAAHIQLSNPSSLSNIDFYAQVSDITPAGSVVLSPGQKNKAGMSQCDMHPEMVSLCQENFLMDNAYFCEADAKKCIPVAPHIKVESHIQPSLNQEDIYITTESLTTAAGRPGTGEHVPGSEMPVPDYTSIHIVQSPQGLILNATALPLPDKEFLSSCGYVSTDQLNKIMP
Method: SK-MEL-28, MALME-3M, and T84 cells were grown and maintained in Eagle's Minimal Essential Medium. IM9 and L cells were grown in RPMI-1640 media and Dulbecco's modified Eagle's medium, respectively. All growth media was supplemented with 10% fetal bovine serum and 1× antibiotic-antimycotic […] solution. Cells were grown at 37 °C under a 5% CO2 atmosphere in a humidified incubator, and growth media was replaced every 48 h during incubation. No hGH was present in or added to the growth media unless specifically indicated. Between 12 to 16 h after seeding, adherent cells (SK-MEL-28, MALME-3M, T84, L cells) were switched to serum-free growth media (no GH) and starved for 4 h before the addition of hGH, bGH (L cells), hPRL (MALME-3M and T84 cells), or buffer at the concentrations noted. Cells were then allowed to incubate for an additional 20 min before being harvested. For suspended cell treatments, IM9 cells were pelleted by centrifugation at 140g for 5 min at room temperature. The supernatant was then removed by aspiration, and the cells were resuspended in serum-free media. The cells were then starved for 4 h at 37 °C under a 5% CO2 atmosphere in a humidified incubator and subsequently treated with hGH, S1H, or both at the indicated concentrations for 20 min before harvesting by centrifugation.
Following treatment, the cells were harvested at the indicated time points, and the total protein was extracted. To affect protein extraction, the treatment media was removed by aspiration, and the cells were washed twice with ice-cold PBS. Following washing, total protein was extracted from the cells using RIPA buffer (100 μl/million cells) supplemented with 1.5× Halt protease and phosphatase inhibitor cocktail. Briefly, chilled RIPA buffer was added to the cells, and the lysis reaction was allowed to incubate for 5 min at 4 °C. Adherent cells were harvested for lysis using a sterile cell scraper. The resultant cell suspensions were sonicated on ice for 60 s with ON (2-s)/OFF (1-s) pulses at 2% power. The cell lysate was then cleared by centrifugation at 8000g for 10 min at 4 °C. Following centrifugation, the supernatant was collected and stored at −80 °C until further use. Sample protein concentration was quantified using a Bradford assay with bovine serum albumin as the protein standard. Absorbance at 595 nm was measured using a Spectramax 250 multimode plate reader (Molecular Devices) and processed using SoftmaxPro v4.7.1 software.
Intracellular pSTAT5A (Y694) and pSTAT5B (Y699) levels were quantified from clarified protein samples using an InstantOne ELISA kit (Thermo Fisher) according to the manufacturer’s instructions. Briefly, 50 μl of protein sample (1 mg/ml) were added to wells containing 50 μl antibody cocktail in a 96-well plate and incubated at room temperature for 2 h with shaking (300 rpm). Following incubation, the wells were washed, and the bound antibodies were detected by adding detection regent and incubating the plate for 1 h at room temperature with shaking (300 rpm). Following incubation, stop reagent was added, and the absorbance was read at 450 nm using a UV-VIS spectrophotometer (Molecular Devices, model M2). All experiments were performed in triplicate. Percent pSTAT5 inhibition was calculated from background-subtracted pSTAT5 levels using Equation 2:(2) %inhibition=100×(pSTAT5hGH−pSTAT5PI)/pSTAT5hGH where pSTAT5hGH is the fold-induction of pSTAT5 upon treatment with hGH alone and pSTAT5PI is the fold-induction of pSTAT5 upon co-treatment with hGH and peptide inhibitor.

[2] = Stability of hGH and pegvisomant in human serum (Western blot); assay type: in vitro ADME; settings: RPMI with 25% (v/v) heat-inactivated human AB serum, 37 °C, 25 μg/ml protein, SDS-PAGE/Western blot densitometry, average of three experiments
Method: (§1) The samples were then incubated at 95 °C for 5 min before being cooled on ice and stored at −80 °C. […] Following separation, the proteins were transferred to polyvinylidine difluoride membranes and subjected to Western blot analysis (vide infra). The fraction of intact protein was quantified by measuring the integrated density of each band contained within regions of the gel corresponding to “intact” or “degraded” proteins. […] These reactions were allowed to incubate at 37 °C for up to 8 h, with samples removed at selected timepoints for analysis. Following incubation, the samples were either mixed with 5× Laemmli loading buffer and subjected to SDS-PAGE for Western blot analysis (Fig. S5) or directly injected onto a C18 reversed-phase column for analysis by HPLC as described above for the S1H peptide (Fig. S4).

[3] = molecular target: T2, trypsin (bovine pancreas) (Bos taurus, UniProt P00760); assay: Trypsin degradation of hGH and pegvisomant (HPLC and Western blot); assay type: in vitro ADME; settings: 4 μg/ml trypsin in digestion buffer pH 7.8, 37 °C, up to 8 h, 25 μg/ml protein
T2 construct: purchased Sigma-Aldrich; host or cells: bovine pancreas
T2 sequence (P00760 24-246): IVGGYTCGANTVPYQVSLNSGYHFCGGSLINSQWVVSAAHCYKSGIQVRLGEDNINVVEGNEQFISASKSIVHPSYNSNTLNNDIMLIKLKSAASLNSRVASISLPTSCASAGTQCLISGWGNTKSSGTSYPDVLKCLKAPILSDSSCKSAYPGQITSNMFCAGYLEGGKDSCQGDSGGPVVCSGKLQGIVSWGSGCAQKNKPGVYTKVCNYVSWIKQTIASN
Method: as §1

| % α-helix - TFE [1] [%] | [θ]222 - TFE (mean residue ellipticity at 222 nm) [1] | inhibition at 0.2 µM (hGHR) [%] | % α-helix + TFE [1] [%] | [θ]222 + TFE (mean residue ellipticity at 222 nm) [1] | Substance | % pSTAT5 inhibition (hGHR) | protein remaining intact after 48 h in human serum [2] [%] | time to full degradation by trypsin [3] [h] |
| --- | --- | --- | --- | --- | --- | --- | --- | --- |
| 7.0 | -2,300 | 75.1 | – | – | Ac-YIPKEQKYSFAQNPQT-NH2 [S1H (L46A)] | comparable to WT S1H | – | – |
| 11.2 | -3,700 | 66.6 | 68.8 | -22,800 | Ac-YIPKEQKASFLQNPQT-NH2 [S1H (Y43A)] | comparable to WT S1H | – | – |
| 6.7 | -2,200 | 89.1 | 12.2 | -4,100 | Ac-YIPKEQKYSFLQAPQT-NH2 [S1H (N48A)] | – | – | – |
| 8.2 | -2,700 | 30.1 | 86.3 | – | Ac-YIPKEQKYSFLANPQT-NH2 [S1H (Q47A)] | – | – | – |
| 15.7 | -5,200 | 72.3 | 63.5 | -21,100 | Ac-YIPKEQKYAFLQNPQT-NH2 [S1H (S44A)] | comparable to WT S1H | – | – |
| 8.3 | -2,700 | 37.4 | 25.4 | -8,400 | Ac-YIPKEAKYSFLQNPQT-NH2 [S1H (Q41A)] | reduced inhibitory effects compared with WT S1H | – | – |

The next lines start with the substance.

| Substance | % α-helix - TFE [1] [%] | [θ]222 - TFE (mean residue ellipticity at 222 nm) [1] | inhibition at 0.2 µM (hGHR) [%] | % α-helix + TFE [1] [%] | [θ]222 + TFE (mean residue ellipticity at 222 nm) [1] | % pSTAT5 inhibition (hGHR) | protein remaining intact after 48 h in human serum [2] [%] | time to full degradation by trypsin [3] [h] |
| --- | --- | --- | --- | --- | --- | --- | --- | --- |
| hGH: recombinant human growth hormone, 191-amino acid peptide hormone (22 kDa) | – | – | – | – | – | – | > 92 | 8 |
| Ac-YIPKAQKYSFLQNPQT-NH2 [S1H (E40A)] | – | – | 33.4 | – | – | – | – | – |
| Ac-YIPAEQKYSFLQNPQT-NH2 [S1H (K39A)] | – | – | 88.5 | – | – | – | – | – |
| Ac-YIPKEQAYSFLQNPQT-NH2 [S1H (K42A)] | 2.4 | -800 | 51.7 | 24.4 | -8,100 | reduced inhibitory effects compared with WT S1H | – | – |
| Ac-YIPKEQKYSALQNPQT-NH2 [S1H (F45A)] | 11.1 | -3,700 | 52.5 | 21.4 | -7,100 | reduced inhibitory effects compared with WT S1H | – | – |
